Legend:
[1] = biological target: T1, cholesterol ester transfer protein (CETP) (Homo sapiens, UniProt P11597); test: CETP inhibition test (transfer of 3H-cholesterol ester from human HDL to biotinylated LDL, SPA); format: biochemical; conditions: CETP partially purified from human plasma; 37° C., 18 h; concentration at which transfer is reduced by half
T1 construct: CETP is obtained in partially purified form from human plasma by differential centrifugation and column chromatography; from tissue; host or cells: human plasma
T1 sequence (P11597 18-493): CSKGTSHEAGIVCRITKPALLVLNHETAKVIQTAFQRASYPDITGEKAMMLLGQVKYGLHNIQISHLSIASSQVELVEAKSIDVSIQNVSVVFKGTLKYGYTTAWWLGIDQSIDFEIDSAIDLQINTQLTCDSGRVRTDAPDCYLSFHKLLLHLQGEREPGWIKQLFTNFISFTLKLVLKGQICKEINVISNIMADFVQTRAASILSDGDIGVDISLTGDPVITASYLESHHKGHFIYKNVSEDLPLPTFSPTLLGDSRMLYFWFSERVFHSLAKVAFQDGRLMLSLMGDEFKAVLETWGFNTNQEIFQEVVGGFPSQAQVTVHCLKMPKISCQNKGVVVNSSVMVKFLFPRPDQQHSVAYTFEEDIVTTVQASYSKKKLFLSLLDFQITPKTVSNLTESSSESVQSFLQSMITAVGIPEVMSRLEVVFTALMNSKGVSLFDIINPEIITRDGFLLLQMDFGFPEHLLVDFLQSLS
Procedure: CETP is obtained in partially purified form from human plasma by differential centrifugation and column chromatography and used for the test. For this purpose, human plasma is adjusted to a density of 1.21 g per ml using NaBr and centrifuged at 50,000 rpm at 4° C. for 18 h. The bottom fraction (d>1.21 g/ml) is applied to a Sephadex®Phenyl-Sepharose 4B (Pharmacia) column, washed with 0.15 m NaCl/0.001 m TrisHCl pH 7.4 and subsequently eluted using dist. water. The CETP-active fractions are pooled, dialysed against 50 mM Na-acetate pH 4.5 and applied to a CM-Sepharose® (Pharmacia) column. Elution is subsequently carried out using a linear gradient (0-1 M NaCl). The pooled CETP fractions are dialysed against 10 mM TrisHCl pH 7.4 and subsequently purified further by chromatography over a Mono Q® column (Pharmacia).
50 ml of fresh human EDTA plasma are adjusted to a density of 1.12 using NaBr and centrifuged at 4° C. in a Ty 65 rotor at 50,000 rpm for 18 h. The upper phase is used to obtain cold LDL. […]
To test the CETP activity, the transfer of ^3H-cholesterol ester from human HD-lipoproteins to biotinylated LD-lipoproteins is measured.
The reaction is terminated by addition of Streptavidin-SPA® beads (Amersham) and the transferred radioactivity is directly determined in a liquid scintillation counter. […]

| IC50 [1] | melting point | SMILES |
| --- | --- | --- |
| 10 nM |  | CC1(C)CC(=O)c2c(nc(C3CCCC3)c(C(=O)c3ccc(C(F)(F)F)cc3)c2-c2ccsc2)C1 [Example 1, 2-Cyclopentyl-7,7-dimethyl-4-(3-thienyl)-3-(4-trifluoromethylbenzoyl)-5,6,7,8-tetrahydro-quinolin-5-one] |
|  | 221 to 224 °C | CC1(C)CC(=O)c2c(nc(C3CCCC3)c(C(=O)c3ccc(C(F)(F)F)cc3)c2-c2ccncc2)C1 [Example 2] |
|  | 185 to 186 °C | CC1(C)CC(=O)c2c(nc(C3CCCC3)c(C(=O)c3ccc(C(F)(F)F)cc3)c2C2CCCCC2)C1 [Example 3] |
